From PubChem BioAssay (NCI)
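Cultured in 96-well plates, cells were exposed to test compound for 48 hours across five concentrations. The concentration for 50% growth inhibition is given as GI50. TGI: concentration producing complete growth inhibition.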

Assays:
Assay in all cases: NCI anticancer screen, dose series, 48 h
NCI-H522 lung = system: NCI-H522 lung
786-0 renal = system: 786-0 renal
HCT-116 colon = system: HCT-116 colon
NCI/ADR-RES ovarian = system: NCI/ADR-RES ovarian
MALME-3M melanoma = system: MALME-3M melanoma
MDA-N = system: MDA-N
RPMI-8226 leukemia = system: RPMI-8226 leukemia
SK-MEL-2 melanoma = system: SK-MEL-2 melanoma
CAKI-1 renal = system: CAKI-1 renal
RXF 393 renal = system: RXF 393 renal
NCI-H226 lung = system: NCI-H226 lung

| Structure (SMILES) | TGI (NCI-H522 lung) [µM] | TGI (786-0 renal) [µM] | TGI (HCT-116 colon) [µM] | TGI (NCI/ADR-RES ovarian) [µM] | TGI (MALME-3M melanoma) [µM] | TGI (MDA-N) [µM] | TGI (RPMI-8226 leukemia) [µM] | TGI (SK-MEL-2 melanoma) [µM] | TGI (CAKI-1 renal) [µM] | TGI (RXF 393 renal) [µM] | TGI (NCI-H226 lung) [µM] | GI50 (NCI-H522 lung) [µM] | GI50 (MALME-3M melanoma) [µM] | GI50 (RPMI-8226 leukemia) [µM] | GI50 (SK-MEL-2 melanoma) [µM] | GI50 (CAKI-1 renal) [µM] | GI50 (RXF 393 renal) [µM] | GI50 (HCT-116 colon) [µM] | GI50 (NCI/ADR-RES ovarian) [µM] | GI50 (NCI-H226 lung) [µM] |
| --- | --- | --- | --- | --- | --- | --- | --- | --- | --- | --- | --- | --- | --- | --- | --- | --- | --- | --- | --- | --- |
| COC(=O)C1CC(C=[N+](C)C)=C(SC)N1C(=O)OCc1ccccc1 (centres undefined) | > 100 | > 100 | > 100 | > 100 | > 100 | > 100 | > 100 | > 100 | > 100 | > 100 |  |  |  |  |  |  |  |  |  |  |
| CC(=O)Oc1cccc2c1C(=O)CCCC2 | > 100 | > 100 | > 100 | > 100 | > 100 |  |  | > 100 | > 100 | > 100 | > 100 |  |  |  |  |  |  |  |  |  |
| O=C(/C=C/c1ccc2c(c1)OCO2)c1ccc(O)cc1 | 6.72 | 3.01 | 26.2 | 3.52 | 28.6 | 22.9 |  | 32.7 | 28.7 | 29.6 | 37.9 |  |  |  |  |  |  |  |  |  |
| Nn1c(-c2ccccc2)n[nH]c1=O | > 100 | > 100 | > 100 | > 100 | > 100 | > 100 | > 100 | > 100 | > 100 |  | > 100 |  |  |  |  |  |  |  |  |  |
| O=C(/C=C/c1ccc2c(c1)OCO2)Cc1nc2ncccc2[nH]c1=O | > 100 | > 100 | > 100 | > 100 | > 100 | > 100 | > 100 | > 100 | > 100 | > 100 |  |  |  |  |  |  |  |  |  |  |
| C=CC1(CC/C(=C\[N+](=O)[O-])c2ccc(OC)c(OC)c2)OCC(C)(C)CO1 | 37.8 | 37.9 | 71.9 | 35.5 | 45.5 | 55.5 |  | 37.7 | 52.9 | 36.3 | 56 |  |  |  |  |  |  |  |  |  |
| CC1=C(Cl)C=CP(=O)(Oc2ccccc2)C1 (centres undefined) | 29.9 |  | > 100 |  | > 100 |  |  | > 100 | > 100 |  |  |  |  |  |  |  |  |  |  |  |
| Cc1cc(C)nc(NS(=O)(=O)c2ccc(NC(=O)c3ccc4nc5ccccc5c(Nc5ccc(S(N)(=O)=O)cc5)c4c3)cc2)n1 | > 100 | > 100 | > 100 | > 100 | > 100 |  | > 100 | > 100 | > 100 | > 100 | > 100 |  |  |  |  |  |  |  |  |  |
| Cc1ccc(NC(=O)CC2Sc3ccccc3NC2=O)cc1C (centres undefined) | > 100 |  | > 100 |  | > 100 |  | > 100 | > 100 | > 100 | > 100 | > 100 |  |  |  |  |  |  |  |  |  |
| CCOP(=O)(OCC)C(F)(F)c1ccc(CC(NC(=O)OC(C)(C)C)C(=O)O)cc1 (centres undefined) |  | > 10 | > 10 | > 10 | > 10 | > 10 |  |  | > 10 |  | > 10 |  |  |  |  |  |  |  |  |  |
| N#CC(Cc1ccccc1)N(CCC1=CCCCC1)C(c1ccccc1)c1ccccc1 (centres undefined) | 65.9 | > 100 | > 100 | > 100 | > 100 | > 100 | > 100 | > 100 | > 100 | > 100 |  |  |  |  |  |  |  |  |  |  |
| COc1cccc(Nc2nc(-c3cccs3)nc3cc(OC)c(OC)cc23)c1 | 43.1 | 46 | 54 | 63.8 | > 100 |  | 27.3 | > 100 | 73.4 |  | > 100 |  |  |  |  |  |  |  |  |  |
| CC(=O)Nc1nc(NC(C)=O)c2[nH]c(CO)nc2n1 | > 100 | > 100 | > 100 | > 100 | > 100 | > 100 |  | > 100 | > 100 | > 100 | > 100 |  |  |  |  |  |  |  |  |  |
| COc1ccc2cc1Oc1ccc(cc1)C[C@H]1c3cc(c(OC)cc3CCN1C)Oc1c(O)c(OC)cc3c1[C@H](C2)N(C)CC3 | 55.7 |  | 36 | 77.1 | 52.5 |  | 75.2 | 48.5 | 3.55 | 45 | 63 |  |  |  |  |  |  |  |  |  |
| CC(=O)/C=C/C1=C(C)CCCC1(C)CC(C)C (centres undefined) | 57.8 | 45.2 | 77.8 |  | 89.1 | > 100 | 36 | 43.5 | > 100 | 28.4 | > 100 |  |  |  |  |  |  |  |  |  |
| Nn1c(Nc2ccc(S(=O)(=O)Nc3ncccn3)cc2)nnc(/C=C/c2c(O)ccc3ccccc23)c1=O | 69.6 | 73.6 | 51.1 | 79.7 | 75.8 | > 100 | > 100 | 51.1 | 89.9 | 80.3 |  |  |  |  |  |  |  |  |  |  |
| O=C1c2cc3c(cc2-c2c1c1ccc(F)cc1c(=O)n2C[C@H](O)[C@@H](O)[C@H](O)CO)OCO3 | 0.137 |  |  |  | 0.565 |  | 4.18 | 0.375 | 0.371 | 0.432 |  | 0.0167 | 0.185 | 0.422 | 0.18 | 0.0383 | 0.162 |  |  |  |

| Structure (SMILES) | TGI (NCI-H522 lung) [µM] | TGI (786-0 renal) [µM] | TGI (HCT-116 colon) [µM] | TGI (NCI/ADR-RES ovarian) [µM] | TGI (MALME-3M melanoma) [µM] | TGI (MDA-N) [µM] | TGI (RPMI-8226 leukemia) [µM] | TGI (SK-MEL-2 melanoma) [µM] | TGI (CAKI-1 renal) [µM] | TGI (RXF 393 renal) [µM] | TGI (NCI-H226 lung) [µM] | GI50 (NCI-H522 lung) [µM] | GI50 (MALME-3M melanoma) [µM] | GI50 (RPMI-8226 leukemia) [µM] | GI50 (SK-MEL-2 melanoma) [µM] | GI50 (CAKI-1 renal) [µM] | GI50 (RXF 393 renal) [µM] | GI50 (HCT-116 colon) [µM] | GI50 (NCI/ADR-RES ovarian) [µM] | GI50 (NCI-H226 lung) [µM] |
| --- | --- | --- | --- | --- | --- | --- | --- | --- | --- | --- | --- | --- | --- | --- | --- | --- | --- | --- | --- | --- |
| O=C(Cc1ccc(O)c(O)c1)NCc1c[nH]c2ccccc12 | > 100 | > 100 | > 100 | > 100 | 76.5 |  | > 100 | > 100 | > 100 | > 100 |  |  |  |  |  |  |  |  |  |  |
| Cc1oc2c(cc(O)c3cc(O)ccc32)c2cccc1-2 | > 100 | > 100 | > 100 | > 100 | > 100 | > 100 | > 100 | > 100 | > 100 | > 100 |  |  |  |  |  |  |  |  |  |  |
| Nc1nc(-c2ccccc2)nc2oc(-c3cccs3)nc12 | > 100 | > 100 | > 100 | > 100 |  |  | > 100 | > 100 |  | > 100 | > 100 |  |  |  |  |  |  |  |  |  |
| COc1ccc(-n2c(C)nc3ccc(NC(=S)Nc4ccccc4)cc3c2=O)cc1 | > 100 | > 100 | > 100 | > 100 | > 100 |  | > 100 | > 100 | > 100 | > 100 | > 100 |  |  |  |  |  |  |  |  |  |
| CCC(=O)NC(Nc1cc(C)on1)(C(F)(F)F)C(F)(F)F | > 100 | > 100 | > 100 | > 100 | > 100 |  | > 100 | > 100 | > 100 | > 100 | > 100 |  |  |  |  |  |  |  |  |  |
| COc1ccc(/C=c2\sc3n(c2=O)CCN=3)cc1 | > 100 |  | > 100 |  | > 100 |  |  | > 100 |  | > 100 |  |  |  |  |  |  |  |  |  |  |
| O=C(c1ccccn1)C1(N2CCCCC2)CCCCC1 | 37 | > 100 | > 100 | > 100 |  | > 100 | > 100 | > 100 | > 100 |  | > 100 |  |  |  |  |  |  |  |  |  |
| CCOC(=O)Nc1sc2c(c1C#N)CCCC2 | > 100 | > 100 | > 100 |  | > 100 | > 100 | > 100 | > 100 | > 100 | > 100 | > 100 |  |  |  |  |  |  |  |  |  |
| Nc1nc(SCCC/C=C/I)nc2c1ncn2C1OC(COP(=O)(O)O)C(O)C1O (centres undefined) | > 100 |  | > 100 |  | > 100 |  |  | > 100 |  | > 100 | > 100 |  |  |  |  |  |  |  |  |  |
| COC(=O)[C@@H](O)[C@](O)(CCC(C)C)C(=O)O[C@@H]1C(OC)=C[C@]23CCCN2CCc2cc4c(cc2[C@H]13)OCO4 | 2.99 |  | 2.57 | 71.4 | 1.94 |  | 6.06 | 9.15 | 7.36 | 5.41 | 6.31 |  |  |  |  |  |  |  |  |  |
| CCCCCCCC/C=C\CCCCCCCCCCCC(=O)O | 40 |  | 60.9 | > 125 | > 125 |  | 110 | 31.1 | > 117 | 18.4 | 107 |  |  |  |  |  |  |  |  |  |
| CC(=O)N1C(C(=O)NC2CCCCC2)CSC1c1ccccc1 (centres undefined) | > 100 | > 100 | > 100 | > 100 | > 100 | > 100 | > 100 | > 100 | > 100 |  | > 100 |  |  |  |  |  |  |  |  |  |
| CCOC(=O)c1c(CN2CCCC2)n(-c2ccccc2)c2cc(Br)c(O)cc12 | 36.3 | 31 | 30.3 | 57.9 | 35.5 | 32.2 | 39.5 | 33.3 | 40.8 | 25.6 |  |  |  |  |  |  |  |  |  |  |
| N#C/C(=C1/Sc2c(nc[nH]c2=O)N1c1ccccc1)c1nc2ccccc2[nH]1 | > 100 |  | > 100 |  | > 100 |  | > 100 | > 100 | > 100 |  |  |  |  |  |  |  |  |  |  |  |
| Nc1c(S(=O)(=O)O)cc2cc(S(=O)(=O)O)ccc2c1N=Nc1ccc(-c2ccc(N=Nc3c(N)c(S(=O)(=O)O)cc4cc(S(=O)(=O)O)ccc34)c(S(=O)(=O)O)c2)cc1 | > 100 |  | > 100 | > 100 | > 100 |  | > 100 | > 100 |  | > 100 | > 100 |  |  |  |  |  |  |  |  |  |
| COc1ccc(CN2C(=O)/C(=C\c3cc(OC)c(OC)c(OC)c3)c3ccccc32)cc1 | 3.57 |  | 3.05 | > 100 | 3.3 |  | 7.57 | 4.11 | 20.3 |  | 9.23 | 1.58 | 0.562 | 2.47 | 1.87 | 2.63 |  | 1.61 | 2.97 | 2.96 |
